“Also recorded” adds a separate entry of the source.
Tests used:
Assay type in all cases: cell-based
[1] = target: T1, Jak3 phosphorylation in NK-92 cells (Homo sapiens, UniProt P52333); assay: Western blotting assay for Jak3; details: 1 hour, IL-2 stimulation, read-out: Jak3 inhibition
T1 construct: endogenous in cells; host or cells: NK-92 cells (ATCC)
T1 sequence (P52333 1-1124): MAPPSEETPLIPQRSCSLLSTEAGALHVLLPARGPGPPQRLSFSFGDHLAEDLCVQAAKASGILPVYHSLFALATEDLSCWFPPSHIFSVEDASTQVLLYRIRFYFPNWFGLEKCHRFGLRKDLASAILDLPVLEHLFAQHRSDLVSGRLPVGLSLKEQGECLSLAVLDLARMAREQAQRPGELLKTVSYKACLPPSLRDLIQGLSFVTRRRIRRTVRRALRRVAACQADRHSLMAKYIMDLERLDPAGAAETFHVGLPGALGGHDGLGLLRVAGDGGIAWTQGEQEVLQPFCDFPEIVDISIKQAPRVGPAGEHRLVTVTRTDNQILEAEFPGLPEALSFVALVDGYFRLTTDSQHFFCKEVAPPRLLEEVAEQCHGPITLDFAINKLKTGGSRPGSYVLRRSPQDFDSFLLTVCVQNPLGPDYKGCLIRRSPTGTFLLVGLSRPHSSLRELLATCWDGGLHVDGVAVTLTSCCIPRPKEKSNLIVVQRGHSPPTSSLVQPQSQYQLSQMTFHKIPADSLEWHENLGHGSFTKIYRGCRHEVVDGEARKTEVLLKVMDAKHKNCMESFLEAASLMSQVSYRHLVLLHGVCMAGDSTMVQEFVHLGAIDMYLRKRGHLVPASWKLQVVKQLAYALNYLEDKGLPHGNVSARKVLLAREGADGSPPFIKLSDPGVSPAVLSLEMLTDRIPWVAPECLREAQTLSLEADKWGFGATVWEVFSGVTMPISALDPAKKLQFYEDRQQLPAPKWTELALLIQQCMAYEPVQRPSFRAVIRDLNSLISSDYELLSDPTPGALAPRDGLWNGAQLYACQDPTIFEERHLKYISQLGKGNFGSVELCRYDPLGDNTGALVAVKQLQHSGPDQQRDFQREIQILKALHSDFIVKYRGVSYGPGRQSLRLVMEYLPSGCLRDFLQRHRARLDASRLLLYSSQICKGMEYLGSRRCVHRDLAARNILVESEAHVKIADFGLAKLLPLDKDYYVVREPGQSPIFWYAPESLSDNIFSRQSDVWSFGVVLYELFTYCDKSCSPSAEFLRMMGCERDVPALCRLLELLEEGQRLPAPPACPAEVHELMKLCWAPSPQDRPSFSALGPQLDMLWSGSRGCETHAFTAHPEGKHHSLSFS
Procedure: All cell lines were obtained from the American Type Culture Collection and were maintained at 37° C. with 5% CO2. Ramos cell line was maintained in media supplemented with 10% fetal bovine serum, penicillin (100 units/mL) and streptomycin (100 μg/mL). NK-92 cell line was maintained in media supplemented with 10% fetal bovine serum and 10% horse serum, penicillin (100 units/mL) and streptomycin (100 μg/mL), IL-2 10 ng/mL. Goat F(ab′)2 Anti-Human IgM-UNLB was obtained from SouthernBiotech. IL-2 was obtained from Peprotech.
NK-92 cells were treated with compounds at the dosed indicated for 1 hour in incubator, followed by the IL-2 stimulation for 15 minutes. Cells were then collected and lysed to prepare the cellular extraction. Western blots were performed on cell lysate using Phospho-Jak3, Jak3, Phospho-Stat5, Stat5 antibodies (Cell Signaling Technology). The intensity of blotting band was acquired using Image Lab (Bio-Rad) software, and the IC50 of target was generated with GraphPad Prism.

[2] = target: T2, Btk (Tyr223) phosphorylation in Ramos cells (Homo sapiens, UniProt Q06187); assay: Western blotting assay for Btk (Example 73); details: 45 min, 6 μg/mL anti-IgM, read-out: Btk Inhibition
T2 construct: endogenous in cells; host or cells: Ramos cells (ATCC)
How it was run: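 Ramos cells pre-treated with compound for 45 min at room temperature, then stimulated with 6 μg/mL anti-IgM for 30 min and lysed. Phospho-Btk (Tyr223) measured by Western blot band densitometry; IC50 fitted by non-linear regression.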

[3] = target: T2, Btk (Tyr223) phosphorylation in Ramos cells; assay: Btk Tyr223 phosphorylation inhibition, western blotting assay (Example 72)
Procedure: Ramos cell line was obtained from the American Type Culture Collection and was maintained at 37° C. with 5% CO2, in media supplemented with 10% fetal bovine serum, penicillin (100 units/mL) and streptomycin (100 μg/mL), Goat F(ab′)2 Anti-Human IgM-UNLB was obtained from SouthernBiotech.
Ramos cells were treated with compounds at indicated doses for 45 min at room temperature, followed by stimulation of 12 μg/mL of IgM for 30 min, and then lysed. Western blots were performed on the cell lysate using Phospho-Btk (Tyr223), Phospho-Btk (Tyr551), Btk, Phospho-PLCγ2 (Tyr1217), PLCγ2, Phospho-p44/42 MAPK (Erk1/2) (Thr202/Tyr204) and p44/42 MAPK (Erk1/2) antibodies (Cell Signaling Technology). The density of blotting band was acquired using ImageJ software, and the IC50 of Btk (Tyr223) phosphorylation was fitted using a non-linear regression model by GraphPad Prism version 4.0.

[4] = target: T3, Btk phosphorylation in Ramos cells (Homo sapiens, UniProt Q06187); assay: Pulse chase western blotting assay for irreversibility / binding property; details: 100 nM for 45 mins, monitored 4, 6 and 8 h post removal
T3 construct: endogenous in cells; host or cells: Ramos cells (ATCC)
Procedure: Ramos cells were treated with Compound I-1 at 100 nM for 45 min. Cells were then re-suspended in compound free media and stimulated with 6 μg/ml IgM at 0, 4, 6 or 8 hours after compound removal. Cells were then lysed after 30 mm IgM stimulation. West blotting analysis were then performed.
Ramos cells were treated with Compounds at 100 nM for 45 min. Cells were then re-suspended in compound free media and stimulated with 6 μg/ml anti-IgM at 0, 4, 6 or 8 hours after compound removal. Cells were then lysed after 30 mm anti-IgM stimulation. Western blotting analysis was then performed.

[5] = system: Stat5 phosphorylation in NK-92 cells; assay: Western blotting assay for Stat5; details: NK92, 1 hour, IL-2 stimulation, read-out: Stat5 inhibition
How it was run: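 NK-92 cells, maintained with IL-2, were pre-treated with compound for 1 h, then stimulated with IL-2 for 15 min. Lysates were western blotted for phospho- and total Jak3 and Stat5. IC50 came from densitometry of phospho-band intensity.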

T2 sequence (Q06187 whole entry): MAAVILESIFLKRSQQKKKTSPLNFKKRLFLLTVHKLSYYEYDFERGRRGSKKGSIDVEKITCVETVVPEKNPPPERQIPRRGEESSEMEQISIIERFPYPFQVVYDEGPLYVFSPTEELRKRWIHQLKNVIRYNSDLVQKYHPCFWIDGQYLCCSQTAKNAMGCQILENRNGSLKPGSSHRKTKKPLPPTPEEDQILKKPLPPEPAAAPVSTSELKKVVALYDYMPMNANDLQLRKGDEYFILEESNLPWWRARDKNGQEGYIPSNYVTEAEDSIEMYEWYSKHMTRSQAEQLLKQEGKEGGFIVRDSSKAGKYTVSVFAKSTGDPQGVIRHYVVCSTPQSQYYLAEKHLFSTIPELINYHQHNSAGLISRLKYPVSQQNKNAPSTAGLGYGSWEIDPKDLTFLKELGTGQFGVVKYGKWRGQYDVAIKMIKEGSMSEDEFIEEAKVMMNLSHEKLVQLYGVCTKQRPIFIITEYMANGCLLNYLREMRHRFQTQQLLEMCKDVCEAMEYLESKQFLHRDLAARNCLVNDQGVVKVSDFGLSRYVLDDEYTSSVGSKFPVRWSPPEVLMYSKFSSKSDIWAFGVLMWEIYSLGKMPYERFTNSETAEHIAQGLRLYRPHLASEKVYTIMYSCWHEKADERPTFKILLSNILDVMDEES
T3 sequence (Q06187 whole entry): as above

IC50 [1]: 200 to 400 nM | IC50 [2]: ≤ 10 nM | IC50 ([3]; Btk Tyr223 phosphorylation, 45 min, 12 μg/mL IgM, read-out: BTK Inhibition): < 10 nM | IC50 ([3]; treated 45 mins, read-out: inhibition IC50 of the phosphorylation of BTK protein): 5 nM | IC50 [5]: 200 to 400 nM
Compound: C=CC(=O)Nc1cccc(Oc2nc(Nc3ccc(N4CCN(C)CC4)c(F)c3)ncc2OC)c1 [Compound I-2, N-(3-(2-(3-fluoro-4-(4-methylpiperazin-1-yl)phenylamino)-5-methoxypyrimidin-4-yloxy)phenyl) acrylamide]
reduction of the Btk Tyr223 phosphorylation in Ramos cells ([3]; western blot): reduction of the Btk Tyr223 phosphorylation | inhibition of BTK phosphorylation after compound removal (irreversibility) [4]: remains inhibited up to 8 his; also recorded: long term effect of the inhibition was observed after compounds removal up to 8 hours; also recorded: remains inhibited up to 8 hrs; also recorded: irreversibly inhibited the BTK phosphorylation; also recorded: inhibited the Btk phosphorylation in Ramos cells after 8 hours of removal

Reference: patent US9920074B2 (ACEA BIOSCIENCES INC., priority 2013, dated 2018)
